# Results published in patent publication US10059713B2 (Takeda Pharmaceutical Company Limited, priority 2014, dated 2018).
# Molecular target: human GPR43 (Homo sapiens (Human), UniProt O15552)
# Assay: Ca-Flux functional assay: determination of agonist/positive allosteric modulator (PAM) activity
# Type: cell-based
# Settings: CHO-K1 Gα16 cells stably expressing human GPR43; compound added with EC20 sodium acetate; intracellular Ca2+ by FLIPR; does not distinguish agonist from PAM
# Method in brief: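 Agonist or PAM activity read as intracellular Ca2+ rise by FLIPR after adding compound plus EC20 acetate, acetate EC20 set from a prior curve. Cells: CHO-K1 Gα16 with stable human GPR43. EC50 from ten-point half-log curves starting 10 μM.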
# Sequence of human GPR43 (O15552 whole entry): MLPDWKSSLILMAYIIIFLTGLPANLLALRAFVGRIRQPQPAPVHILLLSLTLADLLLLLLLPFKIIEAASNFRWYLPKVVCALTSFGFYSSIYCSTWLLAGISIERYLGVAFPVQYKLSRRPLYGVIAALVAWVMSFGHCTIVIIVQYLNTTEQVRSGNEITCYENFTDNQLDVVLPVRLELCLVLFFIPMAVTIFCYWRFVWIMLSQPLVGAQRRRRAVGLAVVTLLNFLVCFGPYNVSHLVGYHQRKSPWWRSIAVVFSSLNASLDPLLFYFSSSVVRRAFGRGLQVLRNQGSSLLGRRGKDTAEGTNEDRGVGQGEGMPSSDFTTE
row,Compound,EC50
1,"Nc1[nH]c2c(C3=CCCCC3)ncnc2c1S(=O)(=O)CC1CCOCC1 [Example 109, 4-(cyclohex-1-en-1-yl)-7-(oxan-4-ylmethanesulfonyl)-5H-pyrrolo[3,2-d]pyrimidin-6-amine]",5020 nM
2,"Cc1nc(N2CCOC3(CC3)C2)c2[nH]c(N)c(S(=O)(=O)c3ccccc3)c2n1 [Example 205, 7-(benzenesulfonyl)-2-methyl-4-{4-oxa-7-azaspiro[2.5]octan-7-yl}-5H-pyrrolo[3,2-d]pyrimidin-6-amine]",7 nM
3,"COc1ccc(S(=O)(=O)c2c(N)[nH]c3c(N4CCOC(C)(C)C4)ncnc23)cc1 [Example 129, 4-(2,2-dimethylmorpholin-4-yl)-7-(4-methoxybenzenesulfonyl)-5H-pyrrolo[3,2-d]pyrimidin-6-amine]",33 nM
4,"COc1ccc(S(=O)(=O)c2c(N)[nH]c3c(-c4ccccc4)ncnc23)cc1 [Example 76, 7-(4-methoxybenzenesulfonyl)-4-phenyl-5H-pyrrolo[3,2-d]pyrimidin-6-amine]",135 nM
5,"Nc1[nH]c2c(C3=CCCCC3)ncnc2c1S(=O)(=O)c1ccc(F)c(F)c1 [Example 49, 4-(cyclohex-1-en-1-yl)-7-[(3,4-difluorobenzene)sulfonyl]-5H-pyrrolo[3,2-d]pyrimidin-6-amine]",113 nM
6,"CSc1nc(N2CCOC(C(F)(F)F)C2)c2[nH]c(N)c(S(=O)(=O)c3ccccc3F)c2n1 (stereo not shown) [Example 301, 7-(2-fluorobenzenesulfonyl)-2-(methylsulfanyl)-4-[2-(trifluoromethyl)morpholin-4-yl]-5H-pyrrolo[3,2-d]pyrimidin-6-amine]",14 nM
7,"CCC(Oc1nc(C)nc2c(S(=O)(=O)c3ccccc3)c(N)[nH]c12)C1CC1 (stereo not shown) [Example 243, 7-(benzenesulfonyl)-4-(1-cyclopropylpropoxy)-2-methyl-5H-pyrrolo[3,2-d]pyrimidin-6-amine]",11 nM
8,"Nc1[nH]c2c(C3=CCCCC3)ncnc2c1S(=O)(=O)c1ccccn1 [Example 20, 4-(cyclohex-1-en-1-yl)-7-(pyridine-2-sulfonyl)-5H-pyrrolo[3,2-d]pyrimidin-6-amine]",317 nM
9,"Nc1[nH]c2c(OCC3CCCOC3)ncnc2c1S(=O)(=O)c1ccccc1 (stereo not shown) [Example 157, 7-(benzenesulfonyl)-4-(oxan-3-ylmethoxy)-5H-pyrrolo[3,2-d]pyrimidin-6-amine]",1580 nM
10,"Nc1[nH]c2c(C3=CCCCC3)ncnc2c1S(=O)(=O)C1CCOC1 (stereo not shown) [Example 78, 4-(cyclohex-1-en-1-yl)-7-(oxolane-3-sulfonyl)-5H-pyrrolo[3,2-d]pyrimidin-6-amine]",2340 nM
11,"Nc1[nH]c2c(-n3cccn3)ncnc2c1S(=O)(=O)c1ccccc1 [Example 128, 7-(benzenesulfonyl)-4-(1H-pyrazol-1-yl)-5H-pyrrolo[3,2-d]pyrimidin-6-amine]",797 nM
12,"Cc1nc(N2CCOC(CF)C2)c2[nH]c(N)c(S(=O)(=O)c3ccccc3F)c2n1 (stereo not shown) [Example 266, 7-(2-fluorobenzenesulfonyl)-4-[2-(fluoromethyl)morpholin-4-yl]-2-methyl-5H-pyrrolo[3,2-d]pyrimidin-6-amine]",3 nM
13,"Nc1[nH]c2c(C3=CCCCC3)cncc2c1S(=O)(=O)c1ccccc1 [Example 16, 3-(benzenesulfonyl)-7-(cyclohex-1-en-1-yl)-1H-pyrrolo[3,2-c]pyridin-2-amine]",21 nM
14,"Nc1[nH]c2c(N3CCC(F)(F)C3)ncnc2c1S(=O)(=O)c1ccccc1 [Example 29, 7-(benzenesulfonyl)-4-(3,3-difluoropyrrolidin-1-yl)-5H-pyrrolo[3,2-d]pyrimidin-6-amine]",399 nM
15,"Cc1cc(C)n(-c2ncnc3c(S(=O)(=O)c4ccccc4)c(N)[nH]c23)n1 [Example 140, 7-(benzenesulfonyl)-4-(3,5-dimethyl-1H-pyrazol-1-yl)-5H-pyrrolo[3,2-d]pyrimidin-6-amine]",72 nM
16,"CNc1nc(N2CCOC(C)C2)c2[nH]c(N)c(S(=O)(=O)c3ccccc3F)c2n1 (stereo not shown) [Example 298, 7-(2-fluorobenzenesulfonyl)-N2-methyl-4-(2-methylmorpholin-4-yl)-5H-pyrrolo[3,2-d]pyrimidine-2,6-diamine]",5 nM
17,"COc1cc(F)ccc1S(=O)(=O)c1c(N)[nH]c2c(N3CCOC(C)C3)ncnc12 (stereo not shown) [Example 222, 7-(4-fluoro-2-methoxybenzenesulfonyl)-4-(2-methylmorpholin-4-yl)-5H-pyrrolo[3,2-d]pyrimidin-6-amine]",4040 nM

# Continued by falling EC50, values first:
row,EC50,Compound
1,6620 nM,"COCCOc1ncnc2c(S(=O)(=O)c3ccccc3)c(N)[nH]c12 [Example 174, 7-(benzenesulfonyl)-4-(2-methoxyethoxy)-5H-pyrrolo[3,2-d]pyrimidin-6-amine]"
2,933 nM,"Nc1[nH]c2c(N3CCCC4(COC4)C3)ncnc2c1S(=O)(=O)c1ccccc1 [Example 150, 7-(benzenesulfonyl)-4-{2-oxa-6-azaspiro[3.5]nonan-6-yl}-5H-pyrrolo[3,2-d]pyrimidin-6-amine]"
3,162 nM,"Nc1[nH]c2c(C3CCCCC3)ncnc2c1S(=O)(=O)C1CCCCC1 [Example 51, 7-(cyclohexanesulfonyl)-4-cyclohexyl-5H-pyrrolo[3,2-d]pyrimidin-6-amine]"
4,145 nM,"C=C(C)c1cncc2c(S(=O)(=O)c3ccccc3)c(N)[nH]c12 [Example 100, 3-(benzenesulfonyl)-7-(prop-1-en-2-yl)-1H-pyrrolo[3,2-c]pyridin-2-amine]"
5,118 nM,"COc1ccc(S(=O)(=O)c2c(N)[nH]c3c(C4CCCC4)ncnc23)cc1 [Example 73, 4-cyclopentyl-7-(4-methoxybenzenesulfonyl)-5H-pyrrolo[3,2-d]pyrimidin-6-amine]"
6,82 nM,"Cc1nc(N2CCC(F)(F)CC2)c2[nH]c(N)c(S(=O)(=O)c3cccc(F)c3)c2n1 [Example 181, 4-(4,4-difluoropiperidin-1-yl)-7-(3-fluorobenzenesulfonyl)-2-methyl-5H-pyrrolo[3,2-d]pyrimidin-6-amine]"
7,58 nM,"CCc1nc(C2CCCCC2)c2[nH]c(N)c(S(=O)(=O)c3ccccc3)c2n1 [Example 53, 7-(benzenesulfonyl)-4-cyclohexyl-2-ethyl-5H-pyrrolo[3,2-d]pyrimidin-6-amine]"
8,31 nM,"Cc1nc(N2CCOC3(CC3)C2)c2[nH]c(N)c(S(=O)(=O)c3cccc(F)c3)c2n1 [Example 192, 7-(3-fluorobenzenesulfonyl)-2-methyl-4-{4-oxa-7-azaspiro[2.5]octan-7-yl}-5H-pyrrolo[3,2-d]pyrimidin-6-amine]"
9,11 nM,"Cc1nc(N2C[C@@H](C)O[C@H](C)C2)c2[nH]c(N)c(S(=O)(=O)c3ccccc3F)c2n1 [Example 203, 4-[(2R,6R)-2,6-dimethylmorpholin-4-yl]-7-(2-fluorobenzenesulfonyl)-2-methyl-5H-pyrrolo[3,2-d]pyrimidin-6-amine]"
10,2 nM,"Cc1nc(N2CCO[C@@H](C(F)(F)F)C2)c2[nH]c(N)c(S(=O)(=O)c3ccc(Cl)cc3F)c2n1 [Example 297, 7-(4-chloro-2-fluorobenzenesulfonyl)-2-methyl-4-[(2R)-2-(trifluoromethyl)morpholin-4-yl]-5H-pyrrolo[3,2-d]pyrimidin-6-amine]"
11,2 nM,"Nc1[nH]c2c(N3CCOC(C(F)(F)F)C3)ncnc2c1S(=O)(=O)c1ccccc1F (stereo not shown) [Example 302, 7-(2-fluorobenzenesulfonyl)-4-[2-(trifluoromethyl)morpholin-4-yl]-5H-pyrrolo[3,2-d]pyrimidin-6-amine]"
